According to patent EP3856897B1 (Anadolu Universitesi, priority 2018, dated 2020):
Where two headings read alike, the source gives them in different places.

Columns and labels:
[1] = target: T1, recombinant Tetrahymena thermophila Glutathione S Transferase Mu34 (TtGSTm34-8xHis) enzyme, SEQ ID NO: 1 (Tetrahymena thermophila, UniProt I7M2D2); experiment: Enzyme kinetics of recombinant TtGSTm34-8xHis for substrates GSH and CDNB (spectrophotometric at 340 nm, Lineweaver-Burk); format: biochemical; settings: 200 mM potassium phosphate buffer, 25°C; for Km: 7 substrate concentrations 0.1125-3.6 mM, the other substrate (GSH or CDNB) held at 0.9 mM, Lineweaver-Burk graph; for Kcat: kcat = Vmax/Et, the other substrate held at 0.9 mM
T1 sequence (I7M2D2 39-257): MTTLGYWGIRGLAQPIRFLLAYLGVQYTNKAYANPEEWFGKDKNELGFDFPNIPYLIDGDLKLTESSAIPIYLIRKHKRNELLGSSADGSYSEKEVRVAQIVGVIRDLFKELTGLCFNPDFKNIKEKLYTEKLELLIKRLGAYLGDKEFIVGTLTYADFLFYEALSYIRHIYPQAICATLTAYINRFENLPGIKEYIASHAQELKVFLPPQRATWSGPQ
Method: Determination of GST enzyme activities of affinity purified proteins was performed spectrophotometrically in the presence of 1-chloro-2,4-dinitrobenzene (CDNB) as substrate. […] The enzyme activities were measured with BioTek The Synergy ™ HT Elisa device using Gen5 software. The O.D values for enzyme activity were determined at 340 nm for 30 minutes with 2 minutes intervals, using BioTek The Synergy™ HT Elisa Reader kinetics program.
Unit value of activity is defined as the amount of enzyme that catalyzes 1 µmol substrate at 25°C (CDNB extinction coefficient340 nm = 9.6 mM^-1 cm^-1). The enzyme activities were first calculated in terms of U/ml. Then these values were divided by protein concentrations that were determined by Bradford method (Pierce™ Coomassie Plus Bradford Assay Reagent Cat no: 23238). This way specific activities were calculated in terms of U/mg.
Then activity measurements were carried out in 200 mM potassium phosphate buffer at 25°C for 7 different CDNB concentrations: 0,1125 mM, 0,225 mM, 0,45 mM, 0,9 mM, 1,8 mM, 2,7 mM ve 3,6 mM. A 1/V^- 1 [CDNB] Lineweaver-Burk graph was drawn according to the results obtained (Figure 8). With this graphical aid, Km and Vmax values for CDNB were determined.
These calculations were followed by quantitative protein assay (Bradford) and total enzyme amount (Et) was determined. Kcat value, which reflects the enzyme turnover number was calculated using the formula given below: kcat = Vmax /Et [formula]
One way of comparing the catalytic effects of various enzymes or the conversion of different substrates to the product with the same enzyme is to find the specificity constant (V0) for the reactions. The specificity constant is calculated by the following formula: V0 = kcat /km [formula]

[2] = target: T2, mu class glutathione S-transferase from Manila clam Ruditapes philippinarum (RpGSTµ) (Ruditapes philippinarum, UniProt G9HSP7); settings: from Bathige et al., 2014, cited from earlier work
T2 sequence (G9HSP7 1-217): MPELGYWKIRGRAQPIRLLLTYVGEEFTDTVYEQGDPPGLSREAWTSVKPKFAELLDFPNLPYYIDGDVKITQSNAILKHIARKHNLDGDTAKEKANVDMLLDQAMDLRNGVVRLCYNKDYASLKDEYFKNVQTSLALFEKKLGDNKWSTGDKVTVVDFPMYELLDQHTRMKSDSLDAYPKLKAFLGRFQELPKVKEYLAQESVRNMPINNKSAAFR

| Km ([1]; read-out: Km) | SMILES | Km [1] | Kcat [1] | Km [2] | Km ([2]; read-out: Km) |
| --- | --- | --- | --- | --- | --- |
| – | O=[N+]([O-])c1ccc(Cl)c([N+](=O)[O-])c1 [CDNB, 1-Chloro-2,4-dinitrobenzene] | 470 µM | 195.4 s⁻¹ | 560 µM | – |
| 540 µM | N[C@@H](CCC(=O)N[C@@H](CS)C(=O)NCC(=O)O)C(=O)O [GSH, glutathione] | – | 186.9 s⁻¹ | – | 1030 µM |
